# Reference: patent US11229618B2 (Amarin Pharmaceuticals Ireland Limited, priority 2012, dated 2022)
# What was measured:
# [1] = Phase 1 multidose pharmacokinetic study: safety and tolerability; format: in vivo, human; details: all groups
# Text: The safety population was defined as all randomized subjects who received at least one dose of study drug. The per-protocol population was defined as all safety population subjects who completed the 28-day treatment period without any major protocol deviations, and who provided blood samples for EPA analyses.
# Safety assessments consisted of adverse event (AE) monitoring, clinical laboratory measurements (chemistry, hematology, and urinalysis) 12-lead electrocardiographic measurements, vital signs (systolic and diastolic blood pressure, heart rate, respiratory rate, and oral body temperature) and physical examination findings.
# [2] = ANCHOR: plasma fatty acid concentrations, ratios and class proportions (GC/FID); format: in vivo, human; details: for AA plasma Placebo-adjusted percent change from baseline / DHA plasma Placebo-adjusted percent change from baseline / DPAn-3 plasma Placebo-adjusted percent change from baseline / Linoleic plasma Placebo-adjusted percent change from baseline / Oleic plasma Placebo-adjusted percent change from baseline / Palmitic plasma Placebo-adjusted percent change from baseline / Ratio of AA/EPA plasma Placebo-adjusted percent change from baseline / Ratio of total ω-3/total ω-6 plasma Placebo-adjusted percent change from baseline / Stearic plasma Placebo-adjusted percent change from baseline: week 12, LS mean; for Monounsaturated, proportion of total fatty acids, plasma, Change from baseline / Saturated, proportion of total fatty acids, plasma, Change from baseline / Total ω-3, proportion of total fatty acids, plasma, Change from baseline / Total ω-6, proportion of total fatty acids, plasma, Change from baseline: LS mean (SE); for AA plasma Change from baseline / DHA plasma Change from baseline / DPAn-3 plasma Change from baseline / Linoleic plasma Change from baseline / Oleic plasma Change from baseline / Palmitic plasma Change from baseline / Ratio of AA/EPA plasma Change from baseline / Ratio of total ω-3/total ω-6 plasma Change from baseline / Stearic plasma Change from baseline: baseline to week 12, LS mean; for AA plasma End-of-treatment / DHA plasma End-of-treatment / DPAn-3 plasma End-of-treatment / Linoleic plasma End-of-treatment / Oleic plasma End-of-treatment / Palmitic plasma End-of-treatment / Ratio of AA/EPA plasma End-of-treatment / Ratio of total ω-3/total ω-6 plasma End-of-treatment / Stearic plasma End-of-treatment: week 12, mean; for Monounsaturated, proportion of total fatty acids, plasma, End-of-treatment / Saturated, proportion of total fatty acids, plasma, End-of-treatment / Total ω-3, proportion of total fatty acids, plasma, End-of-treatment / Total ω-6, proportion of total fatty acids, plasma, End-of-treatment: week 12, mean (SD)
# Procedure: A multi-center, placebo-controlled, randomized, double-blind, 12-week study was performed to evaluate the efficacy and safety of >96% E-EPA in patients with fasting triglyceride levels≥200 mg/dl and <500 mg/dl despite statin therapy (the mean of two qualifying entry values needed to be ≥185 mg/dl and at least one of the values needed to be ≥200 mg/dl). The primary objective of the study was to determine the efficacy of >96% E-EPA 2 g daily and 4 g daily, compared to placebo, in lowering fasting TG levels in patients with high risk for cardiovascular disease and with fasting TG levels≥200 mg/dL and <500 mg/dL, despite treatment to LDL-C goal on statin therapy.
# During the double-blind treatment period, patients were to take 2 capsules (>96% E-EPA or matching placebo) in the morning and 2 capsules in the evening for a total of 4 capsules per day. • Patients in the >96% E-EPA 2 g/day treatment group received 1>96% E-EPA 1 g capsule and 1 matching placebo capsule in the morning and in the evening. • Patients in the >96% E-EPA 4 g/day treatment group received 2>96% E-EPA 1 g capsules in the morning and evening. • Patients in the placebo group received 2 matching placebo capsules in the morning and evening.
# Lipids were extracted from plasma and red blood cell (“RBC”) suspensions and converted into fatty acid methyl esters for analysis using a standard validated gas chromatography/flame ionization detection method. Fatty acid parameters were compared between EPA treatment groups and placebo using an ANCOVA model with treatment, gender, type of statin therapy, and presence of diabetes as factors, and the baseline parameter value as a covariate. LSMs, SEs, and 2-tailed 95% confidence intervals for each treatment group and for each comparison were determined.
# The monounsaturated fatty acid group included myristoleic, palmitoleic, cis-vaccenic, oleic, gondoic/gadoleic, erucic and nervonic acids. The saturated fatty acid group included myristic, palmitic, stearic, arachidic, behenic and lignoceric acids. The “total ω-3” group included α-linolenic, stearidonic, eicosatrienoic, ω-3 arachidonic, eicosapentaenoic, ω-3 docosapentaenoic and docosahecaenoic acids. The “total ω-6” group included linoleic, γ-linolenic, eicosadienoic, dihomo-γ-linolenic, ω-6 arachidonic, adrenic, and ω-6 docosapentaenoic acids. The “total fatty acid” group represented the sum of the monounsaturated, saturated, total ω-3 and total ω-6 groups.
smiles,measurement,setting,value
"CC/C=C\C/C=C\C/C=C\C/C=C\C/C=C\CCCC(=O)OCC [IPE, all-cis eicosa-5,8,11,14,17-pentaenoic acid ethyl ester]","changes in laboratory, electrocardiographic, or physical examination findings",[1],no clinically meaningful changes
same,intensity of adverse events,[1],mild or moderate in intensity
same,"Monounsaturated, proportion of total fatty acids, plasma, Placebo-adjusted percent change from baseline",[2]; 2 g/day vs placebo,−1.4%
same,"Saturated, proportion of total fatty acids, plasma, Placebo-adjusted percent change from baseline",[2]; 2 g/day vs placebo,−0.2%
same,"Total ω-3, proportion of total fatty acids, plasma, Placebo-adjusted percent change from baseline",[2]; 2 g/day vs placebo,60.3%
same,"Total ω-6, proportion of total fatty acids, plasma, Placebo-adjusted percent change from baseline",[2]; 2 g/day vs placebo,−4.6%
same,AA plasma Placebo-adjusted percent change from baseline,[2]; 2 g/day vs placebo,−19.1%
same,DHA plasma Placebo-adjusted percent change from baseline,[2]; 2 g/day vs placebo,−0.7%
same,DPAn-3 plasma Placebo-adjusted percent change from baseline,[2]; 2 g/day vs placebo,88.9%
same,Linoleic plasma Placebo-adjusted percent change from baseline,[2]; 2 g/day vs placebo,−14.5%
same,Oleic plasma Placebo-adjusted percent change from baseline,[2]; 2 g/day vs placebo,−14.3%
same,Palmitic plasma Placebo-adjusted percent change from baseline,[2]; 2 g/day vs placebo,−12.1%
same,Ratio of AA/EPA plasma Placebo-adjusted percent change from baseline,[2]; 2 g/day vs placebo,−75.4%
same,Ratio of total ω-3/total ω-6 plasma Placebo-adjusted percent change from baseline,[2]; 2 g/day vs placebo,64.3%
same,Stearic plasma Placebo-adjusted percent change from baseline,[2]; 2 g/day vs placebo,−12.6%
same,"Monounsaturated, proportion of total fatty acids, plasma, Change from baseline",[2]; 2 g/day,−0.7 (0.4) mol %
same,"Saturated, proportion of total fatty acids, plasma, Change from baseline",[2]; 2 g/day,−0.7 (0.3) mol %
same,"Total ω-3, proportion of total fatty acids, plasma, Change from baseline",[2]; 2 g/day,2.1 (0.2) mol %
same,"Total ω-6, proportion of total fatty acids, plasma, Change from baseline",[2]; 2 g/day,−0.8 (0.5) mol %
same,AA plasma Change from baseline,[2]; 2 g/day,−31.1
same,DHA plasma Change from baseline,[2]; 2 g/day,5.0
same,DPAn-3 plasma Change from baseline,[2]; 2 g/day,22.4
same,Linoleic plasma Change from baseline,[2]; 2 g/day,−35.0
same,Oleic plasma Change from baseline,[2]; 2 g/day,−61.7
same,Palmitic plasma Change from baseline,[2]; 2 g/day,−50.1
same,Ratio of AA/EPA plasma Change from baseline,[2]; 2 g/day,−11.2
same,Ratio of total ω-3/total ω-6 plasma Change from baseline,[2]; 2 g/day,0.1
same,Stearic plasma Change from baseline,[2]; 2 g/day,−19.6
same,AA plasma End-of-treatment,[2]; 2 g/day,266.7
same,DHA plasma End-of-treatment,[2]; 2 g/day,62.7
same,DPAn-3 plasma End-of-treatment,[2]; 2 g/day,44.3
same,Linoleic plasma End-of-treatment,[2]; 2 g/day,1082
same,Oleic plasma End-of-treatment,[2]; 2 g/day,972.1
same,Palmitic plasma End-of-treatment,[2]; 2 g/day,1004
same,Ratio of AA/EPA plasma End-of-treatment,[2]; 2 g/day,3.4
same,Ratio of total ω-3/total ω-6 plasma End-of-treatment,[2]; 2 g/day,0.2
same,Stearic plasma End-of-treatment,[2]; 2 g/day,276.2
same,"Monounsaturated, proportion of total fatty acids, plasma, End-of-treatment",[2]; 2 g/day,28.0 (2.8) mol %
same,"Saturated, proportion of total fatty acids, plasma, End-of-treatment",[2]; 2 g/day,33.6 (2.2) mol %
same,"Total ω-3, proportion of total fatty acids, plasma, End-of-treatment",[2]; 2 g/day,5.1 (1.2) mol %
same,"Total ω-6, proportion of total fatty acids, plasma, End-of-treatment",[2]; 2 g/day,33.3 (3.4) mol %
same,"Monounsaturated, proportion of total fatty acids, plasma, Placebo-adjusted percent change from baseline",[2]; 4 g/day vs placebo,−5.8%
same,"Saturated, proportion of total fatty acids, plasma, Placebo-adjusted percent change from baseline",[2]; 4 g/day vs placebo,0.4%
same,"Total ω-3, proportion of total fatty acids, plasma, Placebo-adjusted percent change from baseline",[2]; 4 g/day vs placebo,142.2%
same,"Total ω-6, proportion of total fatty acids, plasma, Placebo-adjusted percent change from baseline",[2]; 4 g/day vs placebo,−7.4%
same,AA plasma Placebo-adjusted percent change from baseline,[2]; 4 g/day vs placebo,−30.7%
same,DHA plasma Placebo-adjusted percent change from baseline,[2]; 4 g/day vs placebo,−2.9%
same,DPAn-3 plasma Placebo-adjusted percent change from baseline,[2]; 4 g/day vs placebo,143.6%
same,Linoleic plasma Placebo-adjusted percent change from baseline,[2]; 4 g/day vs placebo,−24.8%
same,Oleic plasma Placebo-adjusted percent change from baseline,[2]; 4 g/day vs placebo,−30.1%
same,Palmitic plasma Placebo-adjusted percent change from baseline,[2]; 4 g/day vs placebo,−23.3%
same,Ratio of AA/EPA plasma Placebo-adjusted percent change from baseline,[2]; 4 g/day vs placebo,−90.3%
same,Ratio of total ω-3/total ω-6 plasma Placebo-adjusted percent change from baseline,[2]; 4 g/day vs placebo,165.9%
same,Stearic plasma Placebo-adjusted percent change from baseline,[2]; 4 g/day vs placebo,−16.5%
same,"Monounsaturated, proportion of total fatty acids, plasma, Change from baseline",[2]; 4 g/day,−2.0 (0.4) mol %
same,"Saturated, proportion of total fatty acids, plasma, Change from baseline",[2]; 4 g/day,−0.5 (0.3) mol %
same,"Total ω-3, proportion of total fatty acids, plasma, Change from baseline",[2]; 4 g/day,4.4 (0.2) mol %
same,"Total ω-6, proportion of total fatty acids, plasma, Change from baseline",[2]; 4 g/day,−1.8 (0.5) mol %
same,AA plasma Change from baseline,[2]; 4 g/day,−60.1
same,DHA plasma Change from baseline,[2]; 4 g/day,2.3
same,DPAn-3 plasma Change from baseline,[2]; 4 g/day,31.8
same,Linoleic plasma Change from baseline,[2]; 4 g/day,−152
same,Oleic plasma Change from baseline,[2]; 4 g/day,−219
same,Palmitic plasma Change from baseline,[2]; 4 g/day,−161
same,Ratio of AA/EPA plasma Change from baseline,[2]; 4 g/day,−14.1
same,Ratio of total ω-3/total ω-6 plasma Change from baseline,[2]; 4 g/day,0.2
same,Stearic plasma Change from baseline,[2]; 4 g/day,−31.2
same,AA plasma End-of-treatment,[2]; 4 g/day,222.8
same,DHA plasma End-of-treatment,[2]; 4 g/day,53.6
same,DPAn-3 plasma End-of-treatment,[2]; 4 g/day,50.2
same,Linoleic plasma End-of-treatment,[2]; 4 g/day,921.8
same,Oleic plasma End-of-treatment,[2]; 4 g/day,782.5
same,Palmitic plasma End-of-treatment,[2]; 4 g/day,843.8
same,Ratio of AA/EPA plasma End-of-treatment,[2]; 4 g/day,1.6
same,Ratio of total ω-3/total ω-6 plasma End-of-treatment,[2]; 4 g/day,0.2
same,Stearic plasma End-of-treatment,[2]; 4 g/day,253.4
same,"Monounsaturated, proportion of total fatty acids, plasma, End-of-treatment",[2]; 4 g/day,26.7 (3.0) mol %
same,"Saturated, proportion of total fatty acids, plasma, End-of-treatment",[2]; 4 g/day,33.6 (2.4) mol %
same,"Total ω-3, proportion of total fatty acids, plasma, End-of-treatment",[2]; 4 g/day,7.1 (2.0) mol %
same,"Total ω-6, proportion of total fatty acids, plasma, End-of-treatment",[2]; 4 g/day,32.6 (3.5) mol %
